The values below come from US20240252677A1, “ONE-COMPONENT DELIVERY SYSTEM FOR NUCLEIC ACIDS” (The Trustees of the University of Pennsylvania, priority 2021, published 2024).

In series [1] the test system is HEK293T cells. Kind of series: In vitro Luc-mRNA transfection, luciferase luminescence expression in HEK293T cells. Also on record: unit not given here. Particulars: Table 16; HEK 293T cells, 125 ng/well, n=3. It counts as cell-based, human. The method, boiled down:
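HEK293T cells were transfected with nucleoside-modified firefly luciferase mRNA at 125 ng/well delivered in the test particles. TransIT and MC3-based LNPs at equal mRNA dose served as comparators. After 24 h (18-20 h in some runs) at 37° C the cells were lysed, and luciferase luminescence was read on a luminometer, in triplicate.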

Series [2] deals with lung. Nature of the series: In vivo mRNA delivery, IVIS imaging of organs: lung. Set-up: species or system mice; key to Organs with luminescence: lung: strong: Strong meant the luminescence intensity in that organ was relatively high, compared to other organs; weak: Weak meant the luminescence intensity in that organ was relatively low, compared to other organs. Particulars: Table 17; mice, IVIS, 4-6 h after injection; intensity relative to other organs.

Series [3] has as its system spleen. Kind of series: In vivo mRNA delivery, IVIS imaging of organs: spleen. Also on record: species or system mice; key to Organs with luminescence: spleen: strong: Strong meant the luminescence intensity in that organ was relatively high, compared to other organs; weak: Weak meant the luminescence intensity in that organ was relatively low, compared to other organs. Particulars: Table 17; mice, IVIS, 4-6 h after injection; intensity relative to other organs.

Series [4] in a line: Stability of DNPs by DLS after storage at 5° C. It counts as physicochemical. Also on record: key to Original size distribution type (DLS curve) / Size distribution type (DLS curve): U: DLS curve showed unimodal size distribution; B: DLS curve showed bimodal size distribution; M: DLS curve showed multimodal size distribution. Particulars: for pH Sample: DNPs: IAJD 4.0 mg/mL + Luc-mRNA 0.1 mg/mL, injection in acetate buffer pH 4.00; for PDI / Size (d, nm) / Original size distribution type (DLS curve): IAJD 4.0 mg/mL + Luc-mRNA 0.1 mg/mL; for PDI / Size (d, nm): acetate buffer; for Original size distribution type (DLS curve): before storage, acetate buffer pH 4.00. A digest of the protocol: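 DNPs in acetate buffer sized by DLS after storage at 5 °C. Stability ranked Excellent, Good or Not stable according to retention, shrinkage or growth of original size and narrowing or broadening of size distribution.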

Series [5] can be described thus: pKa measurements of individual IAJD molecules by titration. The series is classed as physicochemical. The settings on record: ethanol saturated with NaCl, titrated with 0.1 M aqueous HCl; individual IAJD molecules, titration. The method, boiled down:
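Compound dissolved at 1.5 mg/mL in NaCl-saturated ethanol and titrated with 0.1 M HCl in 7.5 μL steps, pH read by electrode after each addition. pKa taken from the half-equivalence point.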

By pKa is commonly meant the negative logarithm of the acid dissociation constant.

The structures appear in SMILES notation.

Turning to `CCCCCCCCCCCCCOc1cc(COC(=O)CCCN2CCN(CCO)CC2)cc(OCCCCCCCCCCC)c1` [IAJD 117, 3-(Tridecyloxy)-5-(undecyloxy)benzyl 4-(4-(2-hydroxyethyl)piperazin-1-yl)butanoate], the Luminescence in series [1] is on record as 516,522. The “Organs with luminescence: lung” value in series [2] was “Lung (weak),”. For the same compound, the “Organs with luminescence: spleen” value in series [3] is “spleen (strong)”. In series [4], the “pH Sample” value was found to be 4.40 and the “Original size distribution type (DLS curve)” value is reported as “(B)”. Further, in series [4] (after 70 days at 5° C.), the “Size distribution type (DLS curve)” value is recorded as “(B)”; the PDI was determined as 0.312; the “Size (d, nm)” value stood at 323 nm. In series [5], the pKa came out at 6.49.

`CCCCCCCCCCCCCCCCCCOc1cc(COC(=O)CCCN2CCN(CCO)CC2)cc(OCCCCCCCCCCCCC)c1` [IAJD 178, 3-(Octadecyloxy)-5-(tridecyloxy)benzyl 4-(4-(2-hydroxyethyl)piperazin-1-yl)butanoate]: in series [1], the Luminescence is 235,419. Moreover, the “Organs with luminescence: lung” value in series [2] is listed as “Lung (weak),”. In addition, in series [3], the “Organs with luminescence: spleen” value is on record as “spleen (strong)”. For the same compound, in series [4], the “pH Sample” value is 4.58 and the “Original size distribution type (DLS curve)” value is “(U)”. In series [4] (after 21 days at 5° C.), the “Size distribution type (DLS curve)” value was “(U)”; the PDI was determined as 0.261; the “Size (d, nm)” value came out at 261 nm. In addition, the pKa in series [5] amounted to 5.97.

As to `CCCCCCCCCCCOc1cc(COC(=O)c2cc(OCCOCCOCCCC(=O)CCCN3CCCCC3)c(OCCOCCOCCOCc3ccccc3)c(OCCOCCOCCOC(=O)CCCN3CCCCC3)c2)cc(OCC(CC)CCCC)c1` (stereo not drawn) [IAJD 155], the Luminescence in series [1] turned out to be 74. The “Organs with luminescence: lung” value in series [2] was “Lung (strong),”. Also, the “Organs with luminescence: spleen” value in series [3] is given as “spleen (weak)”. In addition, in series [4], the “pH Sample” value turned out to be 4.93 and the “Original size distribution type (DLS curve)” value is listed as “(U)”. In addition, in series [4] (after 19 days at 5° C.), the “Size distribution type (DLS curve)” value is “(U)”; the PDI came to 0.259; the “Size (d, nm)” value came out at 86 nm. The compound further gave a pKa in series [5] of 7.4.

On to `CCCCCCCCCCCCCCCCCCOc1cc(COC(=O)CCCN2CCN(C)CC2)cc(OCCCCCCCCCCCCC)c1` [IAJD 177, 3-(Octadecyloxy)-5-(tridecyloxy)benzyl 4-(4-methylpiperazin-1-yl)butanoate], for which the Luminescence in series [1] is 4,343. The “Organs with luminescence: lung” value in series [2] is listed as “Lung (weak),”. Further, the “Organs with luminescence: spleen” value in series [3] is given as “spleen (strong)”. Besides, in series [4], the “pH Sample” value is listed as 4.76 and the “Original size distribution type (DLS curve)” value was “(B)”. In addition, in series [4] (after 21 days at 5° C.), the “Size distribution type (DLS curve)” value was “(B)”; the PDI is on record as 0.218; the “Size (d, nm)” value is on record as 153 nm. This compound also gave a pKa in series [5] of 5.9.

Take `CCCCCCCCCCCOc1cc(COC(=O)CCCN2CCN(CCO)CC2)cc(OCCCCCCCCCC)c1` [IAJD 115, 3-(Decyloxy)-5-(undecyloxy)benzyl 4-(4-(2-hydroxyethyl)piperazin-1-yl)butanoate]: the Luminescence in series [1] is on record as 390,021. The “Organs with luminescence: lung” value in series [2] is “Lung (weak),”. Also, the “Organs with luminescence: spleen” value in series [3] was “spleen (strong)”. Also, in series [4], the “pH Sample” value was 4.44 and the “Original size distribution type (DLS curve)” value was “(U)”. For the same compound, in series [4] (after 70 days at 5° C.), the “Size distribution type (DLS curve)” value is recorded as “(U)”; the PDI was found to be 0.383; the “Size (d, nm)” value is 134 nm. In series [5], this compound returned a pKa of 6.32.

Take `CCCCCCCCCCCCCCCOc1cc(COC(=O)CCCN2CCN(C)CC2)cc(OCCCCCCCCCCCCCC)c1` [IAJD 147, 3-(Pentadecyloxy)-5-(tetradecyloxy)benzyl 4-(4-methylpiperazin-1-yl)butanoate]: the Luminescence in series [1] is given as 5,844. For the same compound, the “Organs with luminescence: lung” value in series [2] is given as “Lung (weak),”. For the same compound, the “Organs with luminescence: spleen” value in series [3] is recorded as “spleen (strong)”. For the same compound, in series [4], the “pH Sample” value was determined as 4.50 and the “Original size distribution type (DLS curve)” value is on record as “(U)”. For the same compound, in series [4] (after 19 days at 5° C.), the “Size distribution type (DLS curve)” value is on record as “(U)”; the PDI turned out to be 0.283; the “Size (d, nm)” value came out at 145 nm. The pKa in series [5] is 6.32.

For the compound `CCCCCCCCCCCCCCCOc1cc(COC(=O)CCCN2CCN(CCO)CC2)cc(OCCCCCCCC)c1` [IAJD 138, 3-(Octyloxy)-5-(pentadecyloxy)benzyl 4-(4-(2-hydroxyethyl)piperazin-1-yl)butanoate], in series [1], the Luminescence is 102,620. Further, the “Organs with luminescence: lung” value in series [2] is given as “Lung (weak),”. Further, the “Organs with luminescence: spleen” value in series [3] is “spleen (strong)”. In addition, in series [4], the “pH Sample” value came to 4.52 and the “Original size distribution type (DLS curve)” value was “(U)”. Further, in series [4] (after 35 days at 5° C.), the “Size distribution type (DLS curve)” value was “(B)”; the PDI worked out at 0.261; the “Size (d, nm)” value was 112 nm. This compound gave a pKa in series [5] of 6.62.

In the case of `CCCCCCCCCCCCCCOc1cc(COC(=O)CCCN2CCN(CCO)CC2)cc(OCCCCCCCCCCC)c1` [IAJD 125, 3-(Tetradecyloxy)-5-(undecyloxy)benzyl 4-(4-(2-hydroxyethyl)piperazin-1-yl)butanoate], the Luminescence in series [1] is 119,405. Besides, the “Organs with luminescence: lung” value in series [2] is “Lung (weak),”. In series [3], the “Organs with luminescence: spleen” value is given as “spleen (strong)”. For the same compound, in series [4], the “pH Sample” value is reported as 4.44 and the “Original size distribution type (DLS curve)” value was “(U)”. Also, in series [4] (after 62 days at 5° C.), the “Size distribution type (DLS curve)” value is recorded as “(U)”; the PDI amounted to 0.283; the “Size (d, nm)” value turned out to be 276 nm. In series [5], this compound had a pKa of 6.64.

For the compound `CCCCCCCCCCCCCCCOc1cc(COC(=O)CCCN2CCN(CCO)CC2)cc(OCCCCCCCCCCCC)c1` [IAJD 144, 3-(Dodecyloxy)-5-(pentadecyloxy)benzyl 4-(4-(2-hydroxyethyl)piperazin-1-yl)butanoate], the Luminescence in series [1] was 253,672. Besides, the “Organs with luminescence: lung” value in series [2] is “Lung (weak),”. In series [3], the “Organs with luminescence: spleen” value is given as “spleen (strong)”. Besides, in series [4], the “pH Sample” value stood at 4.40 and the “Original size distribution type (DLS curve)” value is “(B)”. Besides, in series [4] (after 27 days at 5° C.), the “Size distribution type (DLS curve)” value was “(U)”; the PDI is given as 0.276; the “Size (d, nm)” value is recorded as 216 nm. The same compound displayed a pKa in series [5] of 6.51.

As for `CCCCCCCCCCCCCCOc1cc(CNC(=O)CCCN2CCN(C)CC2)cc(OCCCCCCCCCCC)c1` [IAJD 133, 4-(4-Methylpiperazin-1-yl)-N-(3-(tetradecyloxy)-5-(undecyloxy)benzyl)butanamide], the Luminescence in series [1] was 107,307. In addition, the “Organs with luminescence: lung” value in series [2] is reported as “Lung (strong),”. The “Organs with luminescence: spleen” value in series [3] was “spleen (weak)”. In series [4], the “pH Sample” value is listed as 4.63 and the “Original size distribution type (DLS curve)” value is “(B)”. Moreover, in series [4] (after 42 days at 5° C.), the “Size distribution type (DLS curve)” value is on record as “(B)”; the PDI is listed as 0.454; the “Size (d, nm)” value came to 216 nm. This compound gave a pKa in series [5] of 6.57.

`CCCCCCCCCCCCCCCOc1cc(COC(=O)CCCN2CCN(CCO)CC2)cc(OCCCCCCCCCCCCC)c1` [IAJD 146, 3-(Pentadecyloxy)-5-(tridecyloxy)benzyl 4-(4-(2-hydroxyethyl)piperazin-1-yl)butanoate]: the Luminescence in series [1] is 50,625. In addition, the “Organs with luminescence: lung” value in series [2] was “Lung (strong),”. Moreover, the “Organs with luminescence: spleen” value in series [3] was “spleen (strong)”. Moreover, in series [4], the “pH Sample” value is 4.40 and the “Original size distribution type (DLS curve)” value is on record as “(U)”. Also, in series [4] (after 27 days at 5° C.), the “Size distribution type (DLS curve)” value is reported as “(U)”; the PDI is given as 0.285; the “Size (d, nm)” value is 227 nm. Further, the pKa in series [5] amounted to 6.59.
